How the values were obtained:
Type in all cases: cell-based
[1] = target: T1, MycN protein (Homo sapiens, UniProt P04198); test: Degradation of MycN protein, Western blot, SKNBE2 cells (Example 160)
T1 construct: either 2×10^6 of L-363 (human leukemia cell line) or SKNBE2 (neuroblastoma cell line) cells; endogenous in cells; host or cells: SKNBE2 / SK-N-BE(2) neuroblastoma cells
T1 sequence (P04198 1-464): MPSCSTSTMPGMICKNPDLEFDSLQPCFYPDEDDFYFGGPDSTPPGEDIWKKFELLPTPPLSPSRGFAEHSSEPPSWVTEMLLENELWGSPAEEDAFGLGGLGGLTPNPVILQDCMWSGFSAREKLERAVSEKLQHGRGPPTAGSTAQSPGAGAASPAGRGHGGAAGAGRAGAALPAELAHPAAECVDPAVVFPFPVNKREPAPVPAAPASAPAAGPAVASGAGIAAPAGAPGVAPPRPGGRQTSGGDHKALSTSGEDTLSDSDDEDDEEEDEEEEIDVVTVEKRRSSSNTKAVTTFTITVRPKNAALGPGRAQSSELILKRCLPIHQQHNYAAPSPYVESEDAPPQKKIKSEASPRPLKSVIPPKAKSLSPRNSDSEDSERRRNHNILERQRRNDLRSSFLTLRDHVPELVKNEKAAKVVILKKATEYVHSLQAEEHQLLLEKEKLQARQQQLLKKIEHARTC
Description: In a T150 flask was plated either 2×10^6 of L-363 (human leukemia cell line) or SKNBE2 (neuroblastoma cell line) cells in a total of 30 mL containing Roswell Park Memorial Institute (RPMI) 1640 Medium (Thermo Fisher, Cat. #11875-085), 10% Fetal Bovine Serum (FBS, Thermo Fisher: Cat. #10437-028), 1% Penicillin/streptomycin (Thermo Fisher: Cat. #10378016), and 1% Amophotericin B (Thermo Fisher, Cat. #15290026). The cells were split every 72 hours by reseeding the L-363 or SKNBE2 cells, and the passage number was noted. It is noteworthy that cell cultures that were above 40 passages were not used, and most experiments were done with cells of less than 30 passages.
In a 6-well cell culture plate, a total of 3 mL of either 1×10^6 cells/mL of L-363 or SKNBE2 cells were seeded, resulting in a total of 3×10^6 cells per well. To each well containing 3 mL of either L-363 or SKNBE2 cell line was added 6 uL of MycN modulating compound (1 mM) and the resulting plate was shaken from left to right, and not swirled. After 6 hours, the cells were placed in a 15 mL falcon tube and spun at 500 Gs at 4° C. in a swinging bucket centrifuge. The medium was then carefully removed without disturbing the pellet. The pellet was then washed with 3 mLs of chilled phosphate buffered saline (PBS) and subjected to the spin cycle. PBS was then removed and the pellet was lysed in 200 uL of radioimmunoprecipitation (RIPA) lysis buffer (Thermo Fisher: Cat. #899000) that is supplemented with protease and phosphatase inhibitors (Thermo Fisher: Cat. #A32959). The cell lysate was then subjected to spinning in a centrifuge for 10 minutes at 13000 G at 4° C. The supernatant was then carefully transferred to a fresh eppendorf tube without disturbing the pellet (˜180 uL). The protein concentration of the cell lysate was then determined by using a bicinchoninic acid (BCA assay) according to manufacturer's protocol (Thermo Fisher: Cat. #23227).
Cell lysate, approximately 25 ug-30 ug, was loaded per well in a 4-20% polyacrylamide gel (Biorad. Cat. #5671094). After running the dye front off of the gel, the gel was transferred to a nitrocellulose membrane (Biorad: Cat. #1704159) using the transblot turbo system (Biorad: Cat. #1704150) according to manufacturer's protocol. After transferring for 30 minutes, the membrane was blocked with 5% BSA for 1 hour at room temperature. The BSA was then washed off and the primary antibody of choice (1:500) was added, and the membrane was incubated with the primary antibody at 4° C. for overnight. The next morning, the primary antibody was removed and the membrane was washed with 1×-TBST for 10 minutes and repeated three more times. Following the last wash, a secondary antibody (Molecular Devices. Cat. #R8209 or R8208) was added at 1:5000 dilution and incubated for 1 hour at room temperature. Following the incubation with the secondary antibody, the membrane was washed with 1×-TBST for 10 minutes and repeated three more times. Following the last wash, the membrane was washed with de-ionized water twice and dried for at least two hours. Once the membrane is completely dry, the Molecular Devices Spectra Max western system was used to observe the bands. The western image was saved and the band density was measured with ImageJ software.

[2] = target: T2, MycN protein (n-myc) (Homo sapiens, UniProt P04198); test: Degradation of MycN protein, 24 h treatment, JESS Western, SK-N-BE(2) cells (Example 161); conditions: SKNBE2 cells
T2 construct: either 2×10^6 of L-363 (human leukemia cell line) or SKNBE2 (neuroblastoma cell line) cells; endogenous in cells; host or cells: SKNBE2 / SK-N-BE(2) neuroblastoma cells
T2 sequence (P04198 1-464): T1 sequence (P04198 1-464)
Description: (§1) For L363 cells (suspension), 1E6 cells were plated into each well of a 6 well plate. For SK-N-BE(2) cells (adherent), 5E5 cells were plated into each well of a 6 well dish. […] All compounds were diluted to 10 mM in DMSO. Cells were treated with the compound for 24 hrs, then for both cell types, media containing cells were removed from wells into a 15 ml centrifuge tube, and remaining adherent SK-N-BE(2) cells were also scraped from the wells into the appropriate tubes. Tubes were centrifuged, cells were washed with PBS then re-centrifuged to pellet cells. A RIPA buffer cocktail was added to the cells on ice for 5 mins. Cell lysates were clarified by centrifugation and stored at −80 degrees until required. BCA assay was performed on each lysate to determine the protein concentration.
(§2) For validation studies of antibodies, lysates and antibodies were used at a number of concentrations (Lysates: 2, 1, 0.2 mg/ml; Antibodies: 1 in 50, 1 in 200 dilution). Once an appropriate lysate concentration and antibody concentration was determined, samples were screened in the JESS technology (Protein Simple, San Jose, CA—https://www.proteinsimple.com/jess.html).
(§3) Target protein antibodies (n-myc and c-myc) were detected in the chemi-luminescence channel and loading controls (tubulin and GAPDH) were detected using a Near Infra Red (NIR) labeled secondary antibody.
(§4) For SK-N-EB2 adherent cells, 5E5 cells in 1.9 mls media were plated into 6 well dishes and incubated for 24 hrs. […] Cells were scrapped off the plate, centrifuged, washed with PBS, centrifuged, then a RIPA buffer cocktail added to the cells (100 ul), centrifuged and stored at −80 for later analysis. For L363 suspension cells, 1E6 cells were plated into […] (950 ul media) and incubated for 24 hrs. […] Cells were aspirated into tubes, centrifuged, washed with PBS, centrifuged, then a RIPA buffer cocktail added to the cells (100 ul), centrifuged and stored at −80 for later analysis.
(§5) For Western blot, a BCA (total protein) assay was run on all samples, these were then run in batches of 5 compounds plus control (DMSO) on each Western blot run—n-myc and c-myc were run in separate experiments in the chemiluminescence channel. Both tubulin and GAPDH were run as loading controls in all lanes in the near infra red channel.

[3] = target: T3, MycC protein (c-myc) (Homo sapiens, UniProt P01106); test: Degradation of MycC protein, 24 h treatment, JESS Western, L363 cells (Example 161); conditions: L-363 cells
T3 construct: either 2×10^6 of L-363 (human leukemia cell line) cells; endogenous in cells; host or cells: L-363 / L363 human leukemia cells
T3 sequence (P01106 whole entry): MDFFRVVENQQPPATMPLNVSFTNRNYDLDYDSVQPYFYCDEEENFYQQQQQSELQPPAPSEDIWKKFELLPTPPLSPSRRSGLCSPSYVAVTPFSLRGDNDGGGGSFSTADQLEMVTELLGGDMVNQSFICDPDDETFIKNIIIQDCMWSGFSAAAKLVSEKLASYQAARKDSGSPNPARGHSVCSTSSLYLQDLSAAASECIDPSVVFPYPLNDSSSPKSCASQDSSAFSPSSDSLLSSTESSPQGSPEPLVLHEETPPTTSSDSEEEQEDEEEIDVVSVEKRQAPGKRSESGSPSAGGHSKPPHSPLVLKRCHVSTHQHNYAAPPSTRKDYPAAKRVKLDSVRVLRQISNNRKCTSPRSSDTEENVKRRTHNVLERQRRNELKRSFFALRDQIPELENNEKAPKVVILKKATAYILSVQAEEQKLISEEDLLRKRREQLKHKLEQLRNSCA
Description: as §1, §2, §3, §4, §5

`CN(c1nccc(Nc2cc(C3CC3)[nH]n2)n1)[C@H]1CC[C@H](NC(=O)N2Cc3ccccc3C2)CC1` [Compound 11, N-((1R,4R)-4-((4-((5-cyclopropyl-1H-pyrazol-3-yl)amino)pyrimidin-2-yl)(methyl)amino)cyclohexyl)isoindoline-2-carboxamide] was tested, and the inhibition at 2 µM ([1]; SKNBE2, 6 h) was 50 to 79%.
`COCCOCCN1CC2(CC(N(C)c3nccc(Nc4cc(C5CC5)[nH]n4)n3)C2)C1` [Compound 22, N4-(5-Cyclopropyl-1H-pyrazol-3-yl)-N2-(2-(2-(2-methoxyethoxy)ethyl)-2-azaspiro[3.3]heptan-6-yl)-N2-methylpyrimidine-2,4-diamine] was tested, and the inhibition at 0.5 µM ([2]; 0.5 μM) was under 20%, the inhibition at 1 µM [2] was 20 to 49% and the inhibition at 3 µM [2] was 20 to 49%. It also gave an inhibition at 6 µM [2] of 20 to 49%.
For `CN(c1nccc(Nc2cc(C3CC3)[nH]n2)n1)C1CC2(C1)CN(CC(=O)Nc1ccc(S(C)(=O)=O)cc1)C2` [Compound 24, 2-(6-((4-((5-Cyclopropyl-1H-pyrazol-3-yl)amino)pyrimidin-2-yl)(methyl)amino)-2-azaspiro[3.3]heptan-2-yl)-N-(4-(methylsulfonyl)phenyl)acetamide], the inhibition at 6 µM [3] was 80 to 100%.
`CN1CCN(C(=O)CN2CC3(CC(N(C)c4nccc(Nc5cc(C6CC6)[nH]n5)n4)C3)C2)CC1` [Compound 30, 2-(6-((4-((5-Cyclopropyl-1H-pyrazol-3-yl)amino)pyrimidin-2-yl)(methyl)amino)-2-azaspiro[3.3]heptan-2-yl)-1-(4-methylpiperazin-1-yl)ethan-1-one] showed an inhibition at 0.5 µM ([3]; 0.5 μM) of 20 to 49%, an inhibition at 1 µM ([3]; 1 μM) of 20 to 49% and an inhibition at 3 µM ([3]; 3 μM) of under 20%. It also gave an inhibition at 6 µM [3] of under 20%.
`CN(c1nccc(Nc2cc(C3CC3)[nH]n2)n1)C1CC2(C1)CN(S(=O)(=O)c1cn3c(n1)CCCC3)C2` [Compound 36, N4-(5-Cyclopropyl-1H-pyrazol-3-yl)-N2-methyl-N2-(2-((5,6,7,8-tetrahydroimidazo[1,2-a]pyridin-2-yl)sulfonyl)-2-azaspiro[3.3]heptan-6-yl)pyrimidine-2,4-diamine] was tested, and the inhibition at 1 µM [2] was under 20%, the inhibition at 3 µM [2] was under 20% and the inhibition at 6 µM [2] was under 20%.
`CN(c1nccc(Nc2cc(C3CC3)[nH]n2)n1)[C@H]1CC[C@H](NC(=O)C2Cc3ccccc3C2)CC1` [Compound 101, N-((1R,4R)-4-((4-((5-cyclopropyl-1H-pyrazol-3-yl)amino)pyrimidin-2-yl)(methyl)amino)cyclohexyl)-2,3-dihydro-1H-indene-2-carboxamide] gave an inhibition at 2 µM ([1]; SKNBE2, 6 h) of 50 to 79%.
For `CN(c1nccc(Nc2cc(C3CCCC3)[nH]n2)n1)C1CCC(CC(=O)NC2Cc3ccc(C#N)cc3C2)CC1` (stereo not drawn) [Compound 102, N-(5-cyano-2,3-dihydro-1H-inden-2-yl)-2-(4-((4-((5-cyclopentyl-1H-pyrazol-3-yl)amino)pyrimidin-2-yl)(methyl)amino)cyclohexyl)acetamide], the inhibition at 2 µM ([1]; 6 h) was 80 to 100%.
For `CN(c1nccc(Nc2cc(C3CCCC3)[nH]n2)n1)[C@H]1CC[C@H](NC(=O)Cc2cccc(C(F)(F)F)c2)CC1` [Compound 103, N-((1R,4R)-4-((4-((5-cyclopentyl-1H-pyrazol-3-yl)amino)pyrimidin-2-yl)(methyl)amino)cyclohexyl)-2-(3-(trifluoromethyl)phenyl)acetamide], the inhibition at 2 µM ([1]; SKNBE2, 6 h) was 50 to 79%.
`CN(c1nccc(Nc2cc(C3CC3)[nH]n2)n1)[C@H]1CC[C@H](NC(=O)Cc2cccc(C(F)(F)F)c2)CC1` [Compound 104, N-((1R,4R)-4-((4-((5-cyclopropyl-1H-pyrazol-3-yl)amino)pyrimidin-2-yl)(methyl)amino)cyclohexyl)-2-(3-(trifluoromethyl)phenyl)acetamide] gave an inhibition at 2 µM ([1]; SKNBE2, 6 h) of 20 to 49%.
With `CN(c1nccc(Nc2cc(C3CCCC3)[nH]n2)n1)[C@H]1CC[C@H](NC(=O)C2Cc3ccccc3C2)CC1` [Compound 105, N-((1R,4R)-4-((4-((5-cyclopentyl-1H-pyrazol-3-yl)amino)pyrimidin-2-yl)(methyl)amino)cyclohexyl)-2,3-dihydro-1H-indene-2-carboxamide] the inhibition at 2 µM ([1]; SKNBE2, 6 h) was 50 to 79%.
Work on `CN(c1nccc(Nc2cc(C3CCCC3)[nH]n2)n1)[C@H]1CC[C@H](NC(=O)CC2Cc3ccccc3C2)CC1` [Compound 106, N-((1R,4R)-4-((4-((5-cyclopentyl-1H-pyrazol-3-yl)amino)pyrimidin-2-yl)(methyl)amino)cyclohexyl)-2-(2,3-dihydro-1H-inden-2-yl)acetamide] yielded an inhibition at 2 µM ([1]; SKNBE2, 6 h) of 20 to 49%.
Work on `CN(c1nccc(Nc2cc(C3CC3)[nH]n2)n1)[C@H]1CC[C@H](NC(=O)c2cccc(C(F)(F)F)c2)CC1` [Compound 107, N-((1R,4R)-4-((4-((5-cyclopropyl-1H-pyrazol-3-yl)amino)pyrimidin-2-yl)(methyl)amino)cyclohexyl)-3-(trifluoromethyl)benzamide] yielded an inhibition at 2 µM ([1]; SKNBE2, 6 h) of 50 to 79%.
Work on `CN(c1nccc(Nc2cc(C3CC3)[nH]n2)n1)[C@H]1CC[C@H](NC(=O)Cc2cccc(C#N)c2)CC1` [Compound 114, 2-(3-cyanophenyl)-N-((1R,4R)-4-((4-((5-cyclopropyl-1H-pyrazol-3-yl)amino)pyrimidin-2-yl)(methyl)amino)cyclohexyl)acetamide] yielded an inhibition at 2 µM ([1]; SKNBE2, 6 h) of 50 to 79%.
